# The source made the active and inactive calls. The calls are words filed in the database; no cut-off is given here.
# How the values were obtained:
# MCF7 [1] = experiment: Antiproliferative activity against human MCF7 cells assessed as reduction in cell viability incubated for 2 days by MTT assay; format: functional, cell-based; details: MCF7, 48 h
# KB = experiment: Antiproliferative activity against human KB cells assessed as reduction in cell viability incubated for 2 days by MTT assay; format: functional, cell-based; details: 48 h
# A549 = experiment: Antiproliferative activity against human A549 cells assessed as reduction in cell viability incubated for 2 days by MTT assay; format: functional, cell-based; details: A549, 48 h
# MIA PaCa-2 = experiment: Antiproliferative activity against human MIA PaCa-2 cells assessed as reduction in cell viability incubated for 2 days by MTT assay; format: functional, cell-based; details: MIA PaCa-2, 48 h
# MCF7 [2] = experiment: Antiproliferation against human MCF7 cells assessed as effect on cell proliferation at 0.625 uM incubated for 2 days by MTT assay; format: functional, cell-based; details: time 2.0 day
# MCF7 [3] = experiment: Inhibition of cell migration in human MCF7 cells assessed as reduction in wound healing index at 0.625 uM measured after 72 hrs by scratch assay; format: functional, cell-based
# MDA-MB-231 = experiment: Inhibition of cell migration in human MDA-MB-231 cells assessed as reduction in wound healing index measured after 72 hrs by scratch assay; format: functional, cell-based
# MCF7 [4] = experiment: Induction of apoptosis in human MCF7 cells assessed as necrotic cells at 0.62 uM incubated for 48 hrs by Annexin V-FITC/PI staining based flow cytometric analysis (reference value: 1.16 %); format: functional
# MCF7 [5] = experiment: Induction of apoptosis in human MCF7 cells assessed as viable cells at 1.25 uM incubated for 48 hrs by Annexin V-FITC/PI staining based flow cytometric analysis (reference value: 87.2 %); format: functional; details: read-out: Activity
# MCF7 [6] = experiment: Induction of apoptosis in human MCF7 cells assessed as early apoptotic cells at 1.25 uM incubated for 48 hrs by Annexin V-FITC/PI staining based flow cytometric analysis (reference value: 6.33 %); format: functional
# MCF7 [7] = experiment: Induction of apoptosis in human MCF7 cells assessed as late apoptotic cells at 1.25 uM incubated for 48 hrs by Annexin V-FITC/PI staining based flow cytometric analysis (reference value: 5.31 %); format: functional
# MCF7 [8] = experiment: Induction of apoptosis in human MCF7 cells assessed as necrotic cells at 1.25 uM incubated for 48 hrs by Annexin V-FITC/PI staining based flow cytometric analysis (reference value: 1.16 %); format: functional
# MCF7 [9] = experiment: Induction of apoptosis in human MCF7 cells assessed as viable cells at 2.5 uM incubated for 48 hrs by Annexin V-FITC/PI staining based flow cytometric analysis (reference value: 87.2 %); format: functional; details: read-out: Activity
# MCF7 [10] = experiment: Induction of apoptosis in human MCF7 cells assessed as early apoptotic cells at 2.5 uM incubated for 48 hrs by Annexin V-FITC/PI staining based flow cytometric analysis (reference value: 6.33 %); format: functional
# MCF7 [11] = experiment: Induction of apoptosis in human MCF7 cells assessed as late apoptotic cells at 2.5 uM incubated for 48 hrs by Annexin V-FITC/PI staining based flow cytometric analysis (reference value: 5.31 %); format: functional
# MCF7 [12] = experiment: Induction of apoptosis in human MCF7 cells assessed as necrotic cells at 2.5 uM incubated for 48 hrs by Annexin V-FITC/PI staining based flow cytometric analysis (reference value: 1.16 %); format: functional
# MCF7 [13] = experiment: Induction of cell cycle arrest in human MCF7 cells assessed as increase in sub-G1 phase cells at 5 uM incubated for 24 hrs by PI staining based flow cytometric analysis; format: functional
# MCF7 [14] = experiment: Induction of cell cycle arrest in human MCF7 cells assessed as accumulation of cells at G2/M phase cells at 5 uM incubated for 24 hrs by PI staining based flow cytometric analysis (reference value: 10.2 %); format: functional
# MCF7 [15] = experiment: Induction of cell cycle arrest in human MCF7 cells assessed as decrease in G0/G1 phase cells at 5 uM incubated for 24 hrs by PI staining based flow cytometric analysis; format: functional
# MCF7 [16] = experiment: Induction of cell cycle arrest in human MCF7 cells assessed as decrease in S phase cells at 5 uM incubated for 24 hrs by PI staining based flow cytometric analysis; format: functional
# MCF7 [17] = experiment: Induction of ROS accumulation in human MCF7 cells assessed as increase in green fluorescence at 5 uM incubated for 24 hrs by DCFH-DA staining based automated microscopic immunofluorescence analysis; format: functional, cell-based
# MCF7 [18] = experiment: Induction of DNA double-strand breaks in human MCF7 cells assessed as increase in gamma-H2AX foci formation at 10 uM incubated for 24 hrs by […] fluorescence microscopic analysis; format: functional, cell-based
# MCF7 [19] = experiment: Induction of DNA double-strand breaks in human MCF7 cells assessed as appearance of nuclear fragments at 10 uM incubated for 24 hrs by Hoechst 33342 staining based fluorescence microscopic analysis; format: functional, cell-based
# MCF7 [20] = experiment: Induction of DNA double-strand breaks in human MCF7 cells assessed as increase in gamma-H2AX expression incubated for 24 hrs by Western blotting; format: functional, cell-based
# [21] = Acute toxicity in BALB/c nu/nu mouse assessed as survival rate at 90 mg/kg, ip administered for 7 days relative to control; format: organism-based; details: in vivo, time 7 day
# [22] = Acute toxicity in BALB/c nu/nu mouse assessed as survival rate at 100 mg/kg, ip administered for 7 days relative to control; format: organism-based; details: in vivo, time 7 day
# [23] = Acute toxicity in BALB/c nu/nu mouse assessed as survival rate at 110 mg/kg, ip administered for 7 days relative to control; format: organism-based; details: in vivo, time 7 day
# [24] = Acute toxicity in BALB/c nu/nu mouse assessed as survival rate at 120 mg/kg, ip administered for 7 days relative to control; format: organism-based; details: in vivo, time 7 day
# [25] = Acute toxicity in ip dosed BALB/c nu/nu mouse assessed as lethal dose measured after 7 days; format: organism-based; details: in vivo, time 7 day
# MCF7 [26] = experiment: Antitumor activity against human MCF7 cells xenografted in BALB/C-nu/nu mouse model assessed as decrease in tumor volume at 30 mg/kg, iv administered every other day for 15 days relative to control; format: functional; parameters: scale not given: the % may be the effect or the level left; details: time 15 day
# MCF7 [27] = experiment: Antitumor activity against human MCF7 cells xenografted in BALB/C-nu/nu mouse model assessed as decrease in tumor volume at 20 mg/kg, iv administered every other day for 15 days relative to control; format: functional; parameters: scale not given: the % may be the effect or the level left; details: time 15 day
# [28] = Toxicity in BALB/C-nu/nu mouse xenografted with human MCF7 cells assessed as reduction in body weight at 30 mg/kg, iv administered every other day for 15 days relative to control; format: organism-based; parameters: scale not given: the % may be the effect or the level left; details: in vivo, 360 h, time 15 day
# MCF7 [29] = experiment: Antitumor activity against human MCF7 cells xenografted in BALB/C-nu/nu mouse model assessed as decrease in tumor weight at 20 mg/kg, iv administered every other day for 15 days relative to control; format: functional; parameters: scale not given: the % may be the effect or the level left; details: time 15 day
# MCF7 [30] = experiment: Antitumor activity against human MCF7 cells xenografted in BALB/C-nu/nu mouse model assessed as decrease in tumor weight at 30 mg/kg, iv administered every other day for 15 days relative to control; format: functional; parameters: scale not given: the % may be the effect or the level left; details: time 15 day
# [31] = Toxicity in BALB/C-nu/nu mouse xenografted with human MCF7 cells assessed as histopathological lesions in kidney at 20 to 30 mg/kg, iv administered every other day for 15 days by H and E staining based analysis; format: organism-based; details: in vivo, 360 h, dose 20-30 mg/kg, time 15 day
smiles,measurement,setting,value
CN(CCO)S(=O)(=O)c1ccc(-n2ncc(Cl)c(Cl)c2=O)cc1,IC50,MCF7 [1],3100 nM
same,IC50,KB,380 nM
same,IC50,A549,2050 nM
same,IC50,MIA PaCa-2,360 nM
same,Activity,MCF7 [2],inactive
same,inhibition,MCF7 [3],Active
same,inhibition,MDA-MB-231,Active
same,Activity,MCF7 [4],1.3%
same,viability at 1.25 µM,MCF7 [5],75.1%
same,Activity,MCF7 [6],10.2%
same,Activity,MCF7 [7],13.5%
same,Activity,MCF7 [8],1.26%
same,viability at 2.5 µM,MCF7 [9],39.5%
same,Activity,MCF7 [10],26.7%
same,Activity,MCF7 [11],31%
same,Activity,MCF7 [12],2.77%
same,Activity,MCF7 [13],Active
same,Activity,MCF7 [14],19.9%
same,Activity,MCF7 [15],Active
same,Activity,MCF7 [16],Active
same,Activity,MCF7 [17],Active
same,Activity,MCF7 [18],Active
same,Activity,MCF7 [19],Active
same,Activity,MCF7 [20],Dose-Dependent Effect
same,survival at 168 h,[21],100%
same,survival at 168 h,[22],80%
same,survival at 168 h,[23],20%
same,survival at 168 h,[24],0%
same,LD50 at 168 h,[25],105 mg/kg
same,Activity,MCF7 [26],61.6%
same,Activity,MCF7 [27],37.7%
same,Activity,[28],20%
same,Activity,MCF7 [29],44.6%
same,Activity,MCF7 [30],74.2%
same,Activity,[31],Non-Toxic

# — ChEMBL document CHEMBL6127035, “Novel pyridazinone derivatives bind to KSRP: Synthesis, anti-tumor biological evaluations and modelling insights” (Eur J Med Chem, 2024)
